Assays:
Experiment in all cases: Enzyme Assay
PIK3CA (human) = PIK3CA (human) (UniProt P42336)
PIK3CB (Human) = PIK3CB (Human) (UniProt P42338)
PIK3CD (Human) = PIK3CD (Human) (UniProt O00329)
PIK3CG (human) = PIK3CG (human) (UniProt P48736)
Chain of PIK3CG (human) (P48736 whole entry, looked up): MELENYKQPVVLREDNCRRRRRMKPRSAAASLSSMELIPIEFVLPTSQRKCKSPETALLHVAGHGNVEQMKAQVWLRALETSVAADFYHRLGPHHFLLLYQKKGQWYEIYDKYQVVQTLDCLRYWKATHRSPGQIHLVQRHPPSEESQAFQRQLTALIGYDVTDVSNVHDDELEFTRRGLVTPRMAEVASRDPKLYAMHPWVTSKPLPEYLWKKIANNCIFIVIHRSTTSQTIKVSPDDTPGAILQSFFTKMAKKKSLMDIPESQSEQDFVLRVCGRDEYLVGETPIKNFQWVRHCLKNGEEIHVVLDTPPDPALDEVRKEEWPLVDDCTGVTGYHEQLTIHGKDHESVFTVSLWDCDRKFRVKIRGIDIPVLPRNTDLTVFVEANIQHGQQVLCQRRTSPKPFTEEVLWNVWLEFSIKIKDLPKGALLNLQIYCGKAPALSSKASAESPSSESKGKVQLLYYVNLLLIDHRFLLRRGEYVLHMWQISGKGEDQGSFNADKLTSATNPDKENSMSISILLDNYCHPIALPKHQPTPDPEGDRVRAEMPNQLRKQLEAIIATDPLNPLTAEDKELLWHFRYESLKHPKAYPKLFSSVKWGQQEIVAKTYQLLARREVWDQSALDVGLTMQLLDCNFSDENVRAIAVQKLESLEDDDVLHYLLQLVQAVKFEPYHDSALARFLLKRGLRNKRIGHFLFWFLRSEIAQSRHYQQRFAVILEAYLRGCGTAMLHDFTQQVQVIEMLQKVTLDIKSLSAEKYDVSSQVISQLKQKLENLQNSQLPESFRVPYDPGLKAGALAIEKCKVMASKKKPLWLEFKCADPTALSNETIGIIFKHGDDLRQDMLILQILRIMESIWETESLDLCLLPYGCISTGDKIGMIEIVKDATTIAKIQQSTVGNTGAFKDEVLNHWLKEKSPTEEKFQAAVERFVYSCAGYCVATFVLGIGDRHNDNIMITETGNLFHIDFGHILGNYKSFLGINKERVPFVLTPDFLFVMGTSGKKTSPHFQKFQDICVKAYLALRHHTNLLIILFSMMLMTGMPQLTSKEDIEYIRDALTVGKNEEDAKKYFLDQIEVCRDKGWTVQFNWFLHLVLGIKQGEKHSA

Chain of PIK3CD (Human) (O00329 whole entry, looked up): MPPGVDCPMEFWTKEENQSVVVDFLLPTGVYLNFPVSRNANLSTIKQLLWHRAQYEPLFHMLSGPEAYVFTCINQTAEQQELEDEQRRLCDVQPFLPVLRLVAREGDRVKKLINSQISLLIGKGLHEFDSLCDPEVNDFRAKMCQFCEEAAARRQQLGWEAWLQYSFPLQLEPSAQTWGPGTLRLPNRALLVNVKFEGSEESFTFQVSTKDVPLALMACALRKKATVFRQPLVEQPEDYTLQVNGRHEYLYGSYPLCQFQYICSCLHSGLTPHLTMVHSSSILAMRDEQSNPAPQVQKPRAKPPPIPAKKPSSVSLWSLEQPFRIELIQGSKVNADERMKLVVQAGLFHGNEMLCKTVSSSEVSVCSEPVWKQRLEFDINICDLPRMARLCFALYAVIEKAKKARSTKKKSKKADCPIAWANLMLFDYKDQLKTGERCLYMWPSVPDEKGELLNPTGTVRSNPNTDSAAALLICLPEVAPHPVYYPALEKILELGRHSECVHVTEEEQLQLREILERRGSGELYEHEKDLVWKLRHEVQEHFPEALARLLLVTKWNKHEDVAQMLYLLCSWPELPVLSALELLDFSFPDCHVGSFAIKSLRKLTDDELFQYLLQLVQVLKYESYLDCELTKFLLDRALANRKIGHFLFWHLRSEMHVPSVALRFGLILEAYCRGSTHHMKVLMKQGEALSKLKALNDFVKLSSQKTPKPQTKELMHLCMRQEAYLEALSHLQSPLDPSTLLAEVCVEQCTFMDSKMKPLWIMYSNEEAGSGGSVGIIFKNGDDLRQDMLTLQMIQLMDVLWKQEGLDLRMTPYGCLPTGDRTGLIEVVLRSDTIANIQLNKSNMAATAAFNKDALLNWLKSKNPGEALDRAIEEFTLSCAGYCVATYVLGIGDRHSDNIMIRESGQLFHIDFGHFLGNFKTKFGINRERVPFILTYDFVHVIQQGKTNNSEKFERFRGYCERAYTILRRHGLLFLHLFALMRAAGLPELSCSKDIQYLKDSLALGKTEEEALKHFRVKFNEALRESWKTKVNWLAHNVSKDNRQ
Chain of PIK3CA (human) (P42336 whole entry, looked up): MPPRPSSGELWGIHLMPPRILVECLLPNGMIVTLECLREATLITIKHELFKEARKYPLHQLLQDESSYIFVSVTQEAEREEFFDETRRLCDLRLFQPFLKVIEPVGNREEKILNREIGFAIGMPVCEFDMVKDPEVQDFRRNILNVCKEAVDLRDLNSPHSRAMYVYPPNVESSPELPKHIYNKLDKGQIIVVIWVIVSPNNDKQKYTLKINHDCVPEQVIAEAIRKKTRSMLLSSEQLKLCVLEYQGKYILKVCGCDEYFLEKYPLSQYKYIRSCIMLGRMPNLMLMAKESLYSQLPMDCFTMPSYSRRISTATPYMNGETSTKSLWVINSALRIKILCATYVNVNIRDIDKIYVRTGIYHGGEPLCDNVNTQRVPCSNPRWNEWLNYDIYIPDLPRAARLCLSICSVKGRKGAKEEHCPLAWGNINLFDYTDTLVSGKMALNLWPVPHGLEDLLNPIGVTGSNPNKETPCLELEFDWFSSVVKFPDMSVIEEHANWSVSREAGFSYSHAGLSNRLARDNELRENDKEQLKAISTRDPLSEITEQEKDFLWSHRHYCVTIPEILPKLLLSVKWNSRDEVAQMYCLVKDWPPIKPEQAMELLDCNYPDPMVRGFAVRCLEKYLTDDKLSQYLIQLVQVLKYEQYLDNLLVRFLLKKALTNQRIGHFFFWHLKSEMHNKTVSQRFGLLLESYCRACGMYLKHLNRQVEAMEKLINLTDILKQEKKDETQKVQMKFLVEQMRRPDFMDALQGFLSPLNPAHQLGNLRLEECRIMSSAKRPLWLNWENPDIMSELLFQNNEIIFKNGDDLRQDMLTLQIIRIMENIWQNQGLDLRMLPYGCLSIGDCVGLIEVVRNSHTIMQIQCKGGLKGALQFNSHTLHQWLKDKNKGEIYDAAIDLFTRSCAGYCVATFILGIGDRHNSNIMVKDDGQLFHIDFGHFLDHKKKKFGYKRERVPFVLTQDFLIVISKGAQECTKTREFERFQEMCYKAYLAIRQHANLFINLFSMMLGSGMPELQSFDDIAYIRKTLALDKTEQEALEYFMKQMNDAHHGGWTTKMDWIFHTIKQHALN
Chain of PIK3CB (Human) (P42338 whole entry, looked up): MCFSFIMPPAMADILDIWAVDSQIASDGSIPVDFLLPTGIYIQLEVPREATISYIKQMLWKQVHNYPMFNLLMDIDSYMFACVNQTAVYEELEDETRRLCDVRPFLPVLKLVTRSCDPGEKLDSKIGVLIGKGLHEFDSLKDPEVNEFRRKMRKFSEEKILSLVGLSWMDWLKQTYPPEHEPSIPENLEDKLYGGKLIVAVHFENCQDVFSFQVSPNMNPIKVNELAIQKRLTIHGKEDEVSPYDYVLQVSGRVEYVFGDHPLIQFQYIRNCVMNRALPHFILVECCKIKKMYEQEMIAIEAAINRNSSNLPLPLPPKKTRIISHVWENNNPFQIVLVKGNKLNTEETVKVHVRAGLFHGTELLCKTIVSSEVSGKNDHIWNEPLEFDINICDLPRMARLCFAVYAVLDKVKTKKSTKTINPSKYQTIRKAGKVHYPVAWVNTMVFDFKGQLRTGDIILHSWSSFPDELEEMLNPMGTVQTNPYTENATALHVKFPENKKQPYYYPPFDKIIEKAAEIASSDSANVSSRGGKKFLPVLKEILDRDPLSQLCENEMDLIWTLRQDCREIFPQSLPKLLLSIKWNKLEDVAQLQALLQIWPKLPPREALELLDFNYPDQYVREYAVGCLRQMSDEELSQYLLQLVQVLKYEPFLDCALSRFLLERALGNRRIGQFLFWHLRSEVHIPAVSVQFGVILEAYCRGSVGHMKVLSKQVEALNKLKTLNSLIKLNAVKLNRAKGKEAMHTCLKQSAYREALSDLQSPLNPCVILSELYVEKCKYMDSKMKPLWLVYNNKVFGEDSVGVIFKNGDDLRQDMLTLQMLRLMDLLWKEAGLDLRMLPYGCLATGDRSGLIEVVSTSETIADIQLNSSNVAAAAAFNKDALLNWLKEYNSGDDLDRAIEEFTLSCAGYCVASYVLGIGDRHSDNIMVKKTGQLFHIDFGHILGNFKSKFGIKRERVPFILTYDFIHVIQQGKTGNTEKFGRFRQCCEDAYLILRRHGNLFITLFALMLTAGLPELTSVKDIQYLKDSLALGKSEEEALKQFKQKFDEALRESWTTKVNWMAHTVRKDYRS

Structure (SMILES)	IC50 (PIK3CA (human)) [nM]	IC50 (PIK3CB (Human)) [nM]	IC50 (PIK3CD (Human)) [nM]	IC50 (PIK3CG (human)) [nM]
C[C@H](Nc1ncnc2scnc12)c1cc2cccc(-c3ccccn3)c2c(=O)n1-c1ccccc1	> 10000	> 10000	< 100	100 to 1000
C[C@H](Nc1ncnc2scnc12)c1cc2cccc(-c3ccc(F)c(F)c3)c2c(=O)n1-c1ccccc1	–	> 10000	< 100	< 100
C[C@H](Nc1ncnc2scnc12)c1cc2cccc(Cl)c2c(=O)n1CCN1CCCC1	> 10000	100 to 1000	< 100	> 10000
C[C@H](Nc1ncnc2scnc12)c1cc2cccc(Cl)c2c(=O)n1C1CC1	100 to 1000	< 100	< 100	< 100
C[C@H](Nc1ncnc2scnc12)c1cc2cccc(-c3cnn(C)c3)c2c(=O)n1C1CC1	100 to 1000	100 to 1000	< 100	< 100
C[C@H](Nc1ncnc2scc(-c3ccccc3)c12)c1cc2cccc(Cl)c2c(=O)n1-c1ccccc1	> 10000	> 10000	100 to 1000	–
C[C@H](Nc1ncnc2scnc12)c1cc2cccc(-c3cnc4ccccc4c3)c2c(=O)n1-c1ccccc1	100 to 1000	100 to 1000	< 100	< 100
C[C@H](Nc1nc(N)nc2scnc12)c1cc2cccc(-c3cnn(C)c3)c2c(=O)n1-c1ccccc1	100 to 1000	100 to 1000	< 100	< 100
Cc1nc2c(N[C@@H](C)c3cc4cccc(Cl)c4c(=O)n3-c3ccccc3)ncnc2s1	> 10000	> 10000	> 10000	> 10000
C[C@H](Nc1ncnc2scnc12)c1cc2cccc(Cl)c2c(=O)n1-c1ccccc1	100 to 1000	< 100	< 100	< 100
C[C@H](Nc1ncnc2scnc12)c1cc2cccc(-c3ccc(C(F)(F)F)nc3)c2c(=O)n1-c1ccccc1	> 10000	> 10000	< 100	100 to 1000
C[C@H](Nc1ncnc2scnc12)c1cc2cccc(-c3cnc4c(c3)CCCC4)c2c(=O)n1-c1ccccc1	> 10000	> 10000	–	–
C[C@H](Nc1ccnc2scnc12)c1cc2cccc(Cl)c2c(=O)n1-c1ccccc1	100 to 1000	100 to 1000	< 100	< 100
C[C@H](Nc1ncnc2scnc12)c1cc2cccc(-c3ccc(N(C)C)nc3)c2c(=O)n1-c1ccccc1	–	> 10000	< 100	< 100
C[C@H](Nc1ccnc2scnc12)c1cc2cccc(Cl)c2c(=O)n1-c1cccc(F)c1	–	100 to 1000	< 100	< 100
C[C@H](Nc1ncnc2scnc12)c1cc2cccc(-c3cn(C)cn3)c2c(=O)n1-c1ccccc1	> 10000	> 10000	100 to 1000	> 10000
C[C@H](Nc1ncnc2scnc12)c1cc2cccc(C(=O)O)c2c(=O)n1-c1ccccc1	> 10000	> 10000	–	–
COc1ncc(-c2cccc3cc([C@H](C)Nc4ccnc5scnc45)n(-c4ccccc4)c(=O)c23)cn1	–	> 10000	< 100	100 to 1000
COc1ncc(-c2cccc3cc([C@H](C)Nc4ncnc5scnc45)n(-c4cccc(F)c4)c(=O)c23)cn1	–	> 10000	< 100	100 to 1000
C[C@H](Nc1ncnc2scnc12)c1cc2cccc(-c3ccnnc3)c2c(=O)n1-c1ccccc1	–	> 10000	< 100	< 100
COc1cncc(-c2cccc3cc([C@H](C)Nc4ncnc5scnc45)n(-c4ccccc4)c(=O)c23)c1	< 100	100 to 1000	< 100	< 100
CNC(=O)c1cccc2cc([C@H](C)Nc3ncnc4scnc34)n(-c3ccccc3)c(=O)c12	> 10000	> 10000	100 to 1000	> 10000
Cc1cccc2cc([C@H](C)Nc3ncnc4scnc34)n(-c3cccc(F)c3)c(=O)c12	–	100 to 1000	< 100	< 100

Structure (SMILES)	IC50 (PIK3CA (human)) [nM]	IC50 (PIK3CB (Human)) [nM]	IC50 (PIK3CD (Human)) [nM]	IC50 (PIK3CG (human)) [nM]
C[C@H](Nc1ncnc2scnc12)c1cc2scc(Cl)c2c(=O)n1-c1ccccc1	–	< 100	< 100	< 100
Cc1nc2c(N[C@@H](C)c3cc4cccc(-c5cnn(C)c5)c4c(=O)n3-c3ccccc3)ncnc2s1	> 10000	> 10000	–	–
COc1cncc(-c2cccc3cc([C@H](C)Nc4ncnc5scnc45)n(C4CC4)c(=O)c23)c1	100 to 1000	100 to 1000	< 100	100 to 1000
Cc1ncc(-c2cccc3cc([C@H](C)Nc4ncnc5scnc45)n(-c4ccccc4)c(=O)c23)cn1	–	> 10000	< 100	100 to 1000
C[C@H](Nc1ncnc2scnc12)c1cc2scc(-c3cnn(C)c3)c2c(=O)n1-c1ccccc1	–	> 10000	100 to 1000	100 to 1000
C[C@H](Nc1ncnc2scnc12)c1cc2cccc(C(=O)N(C)C)c2c(=O)n1-c1ccccc1	> 10000	> 10000	100 to 1000	> 10000
CC(C)Cn1cc(-c2cccc3cc([C@H](C)Nc4ncnc5scnc45)n(-c4ccccc4)c(=O)c23)cn1	–	> 10000	< 100	100 to 1000
C[C@H](Nc1ncnc2scnc12)c1cc2cccc(-c3cnc4[nH]ccc4c3)c2c(=O)n1-c1ccccc1	100 to 1000	100 to 1000	< 100	< 100
C[C@H](Nc1ncnc2scnc12)c1cc2cccc(-c3cnn(CCN4CCOCC4)c3)c2c(=O)n1-c1ccccc1	–	> 10000	< 100	< 100
C[C@H](Nc1ncnc2scnc12)c1cc2cccc(Cl)c2c(=O)n1-c1cccc(F)c1	100 to 1000	< 100	< 100	< 100
C[C@H](Nc1ncnc2scnc12)c1cc2cccc(Cl)c2c(=O)n1-c1cccc(C(F)(F)F)c1	> 10000	–	100 to 1000	100 to 1000
C[C@H](Nc1ncnc2scnc12)c1cc2cccc(C(=O)N3CCOCC3)c2c(=O)n1-c1ccccc1	> 10000	> 10000	100 to 1000	–
C[C@H](Nc1ncnc2scnc12)c1cc2cccc(Cl)c2c(=O)n1C	–	< 100	< 100	< 100
C[C@H](Nc1ncnc2scnc12)c1cc2cccc(-c3cncc(F)c3)c2c(=O)n1-c1ccccc1	–	> 10000	< 100	< 100
COc1cccc(-c2cccc3cc([C@H](C)Nc4ncnc5scnc45)n(-c4ccccc4)c(=O)c23)c1	100 to 1000	–	< 100	< 100
C[C@H](Nc1ncnc2scnc12)c1cc2cccc(-c3cccc(N(C)C)c3)c2c(=O)n1-c1ccccc1	100 to 1000	–	< 100	< 100
C[C@H](Nc1ncnc2scnc12)c1cc2cccc(-c3cnc4nccnc4c3)c2c(=O)n1-c1ccccc1	> 10000	> 10000	< 100	100 to 1000
CC(C)n1cc(-c2cccc3cc([C@H](C)Nc4ncnc5scnc45)n(-c4ccccc4)c(=O)c23)cn1	–	> 10000	< 100	100 to 1000
Cc1nc2c(N[C@@H](C)c3cc4cccc(Cl)c4c(=O)n3-c3cccc(F)c3)ncnc2s1	> 10000	> 10000	–	> 10000
C[C@H](Nc1ncnc2scnc12)c1cc2cccc(-c3ccc(N)nc3)c2c(=O)n1C1CC1	100 to 1000	100 to 1000	< 100	< 100
Cc1sc2ncnc(N[C@@H](C)c3cc4cccc(Cl)c4c(=O)n3-c3ccccc3)c2c1C	> 10000	> 10000	< 100	–
C[C@H](Nc1ncnc2scnc12)c1cc2cccc(C=O)c2c(=O)n1-c1ccccc1	–	100 to 1000	< 100	< 100

From the Kinase Knowledgebase extract (Sharma et al. 2016)
